Columns and labels:
[1] = tested on: intestinal lipid absorption; test: Lymph-fistula rats, effect of PLA2 inhibitors on lymphatic lipid output; assay type: in vivo, rat; details: FIGS. 10 and 11
Description: The intestinal lipid absorption pathway was isolated in the rat by inserting an infusion cannula in the proximal duodenum and implanting a second cannula in the mesenteric lymph vessel to intercept the lipoprotein output from the intestine. This lymph-fistula rat model was used to investigate the effect of pancreatic PLA2 inhibition, in situ, on intestinal absorption of infused lipid emulsions. In a typical experiment, cannulae were implanted the day before the experimental infusion. Following surgery, the animals were infused (2.5 mL/hr) with isotonic saline containing dextrose to flush the GI tract and obtain basal levels of lymphatic lipid output. On the day of the experiment, infusion of the dextrose recovery solution was continued for 1 hour to collect a basal lymph fraction. At the start of the next hour, the intake of the duodenal infusion cannula was switched to a lipid emulsion of isotonic saline containing safflower oil (59 mM), cholesterol (5.2 mM), PC (3.3 mM) and taurocholic acid (1.9 mM). One hour lymph fractions were collected until the end of the experiment. The lipid content (mass) of lymph fractions was determined by HPLC with a mass-sensitive, evaporative light-scattering detector. […]

porcine pancreatic PLA2 = biological target: T1, porcine pancreatic PLA2 (Sus scrofa, UniProt P00592); test: Fluorescence assay of porcine pancreatic PLA2 inhibition in vitro; assay type: biochemical; details: porcine pancreatic PLA2, in vitro; read-out: In Vitro IC50 (porc. panc. PLA2)
T1 construct: purchased Sigma Chemical Company (St. Louis, Mo.); host or cells: porcine pancreas
T1 sequence (P00592 23-146): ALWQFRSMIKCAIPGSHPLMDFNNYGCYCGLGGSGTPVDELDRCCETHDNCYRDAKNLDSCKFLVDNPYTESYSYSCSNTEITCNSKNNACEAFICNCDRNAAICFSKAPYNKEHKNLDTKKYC
Description: The IC50 values for inhibition of porcine pancreatic PLA2, in vitro, are included for comparison with the in vivo activities.
A sensitive fluorescence method was used to measure the activity of pancreatic phospholipase A2 (PLA2) in vitro. PLA2 hydrolyzes the ester bond linking fatty acids to the sn-2 position in glycerophospholipids. Several types of PLA2 exist, including those isolated from venoms, synovial fluid, platelets, immunoactive cell types and the pancreas. The pancreatic PLA2 was the subject of this experiment because of its fundamental role in promoting lipid absorption in the intestine.
PLA2 activity was detected by the loss of pyrene excimer fluorescence that occurs when (1-pyrenyl)decanoic acid is hydrolysed from the sn-2 position of 1,2-bis-(1-pyrenedecanoyl)sn-glycero-3-phosphocholine ((P10)2 PC) by the action of PLA2. The use of similar pyrene-labeled PC substrates to detect PLA2 activity has been described previously (Radvanyi F., Jordan L., Russo-Marie F., Bon C., "A sensitive and continuous fluorometric assay for phospholipase A2 using pyrene-labeled phospholipids in the presence of serum albumin." Anal. Biochem., 177:103-109 (1989)). The full photophysical basis for the assay is described elsewhere (Birks J. B., "Photophysics of Aromatic Molecules," Wiley Interscience, New York, pp 301-371 (1970)).
In brief, pyrene excimers are formed by the complexation of one pyrene moiety in the ground-state with one pyrene moiety in the excited state to form an excited-state dimer (excimer) which fluoresces at longer wavelengths (475 nm emission maximum) than the wavelength range in which excited-state pyrene monomers fluoresce (370-400 nm). Excimer formation is dependent on the concentration of pyrene moieties. (P10)2 PC emits excimer fluorescence almost exclusively due to the fixed juxtaposition of the pyrene chromophores. The substrate concentration is sufficiently dilute so that excimer formation between the products of PLA2 action, namely lysoPY10PC and the (1-pyrenyl)decanoic acid, is insignificant.
In general, this assay scheme should have been applicable to the study of any type of PLA2. However, since pancreatic PLA2 is unique from the other PLA2 's in that it operates almost exclusively against micellized PC, the PC substrate in this assay was micellized with 1 mM deoxycholic acid. The PC component of the micelles consisted of 5 μM (P10)2 PC substrate diluted with a 99-fold excess (495 μM) of 1-oleyl-2-palmityl phosphatidylcholine (OPPC). The OPPC was inert to PLA2 hydrolysis because it contained ether-linked fatty alkyl chains in place of the ester-linked fatty acyl chains of normal PC. OPPC was included to 1) dilute the micellar (P10)2 PC concentration thereby minimizing intermolecular excimer formation, and 2) preserve the integrity of the micelles against the action of PLA2 since nonspecific micelle disruption could lead to nonlinear kinetics and fluorescence changes independent of lipolysis.
Phospholipase A2 (porcine pancreas), bovine serum albumin (BSA) (fraction V, essentially fatty acid-free) and sodium deoxycholate were obtained from Sigma Chemical Company, (St. Louis, Mo.). 1-Oleyl-2-palmityl-DL-phosphatidylcholine (OPPC) was ordered from Serdary Research Laboratories, Inc. (London, Ont., Canada). 1,2-Bis-(1-pyrenedecanoyl)-sn-glycero-3-phosphatidylcholine ((P10)2 PC) was obtained from Molecular Probes, Inc. (Eugene, Oreg.).
HEPES buffer (SHE) contained 150 mM NaCl, 20 mM HEPES (N-[2-hydroxyethyl]piperazine-N'-[2-ethanesulfonic acid]) and 1 mM EDTA (ethylenediamine tetraacetic acid) at pH 8.0.
1 mM (P10)2 PC in chloroform was prepared by adding 1 mL chloroform to a vial containing 1 mg of (P10)2 PC, as shipped by Molecular Probes. The actual concentration was determined spectrophotometrically by diluting 10 μL of the chloroform solution in 2 mL of ethanol. The absorbance spectrum of the ethanol solution was measured between 380 nm to 280 nm (Beckman DU-64). […]

plasma lipids = test: Plasma lipids in cholesterol-fed rats after oral PLA2 inhibitor; assay type: in vivo; details: 100 mg/kg oral gavage, about 8 hours after start of feeding
Description: Ultimately, agents that inhibit the absorption of dietary cholesterol should suppress postprandial increases in plasma cholesterol. This was tested with several. PLA2 inhibitors in cholesterol-fed rats. The general protocol consisted of preparing a carboxymethyl cellulose/Tween 20 dispersion of the compound of interest and administering it at a dose of 100 mg/kg by oral gavage to rats previously trained to meal-feed. Immediately following administration of the inhibitor, the rats were fed a lipid-rich meal of chow supplemented with cholesterol, peanut oil, and cholic acid.

serum cholesterol = details: neomycin 1.5-2 g/day; β-sitosterol 3-50 g/day; cited from earlier work
cholesterol absorption = test: Cholesterol-fed hamster model, plasma and liver cholesterol / cholesterol absorption; assay type: in vivo; details: FIG. 13
Description: Neomycin and β-sitosterol (Cytellin) have been used as cholesterol absorption inhibitors to treat hypercholesterolemic patients (Kesaniemi, et al., Serum cholesterol lowering by inhibition of cholesterol absorption, Atherosclerosis, VIII:791-794 (1989)). The mechanisms by which these agents inhibit intestinal cholesterol absorption are unknown. Relatively large doses must be administered (1.5-2 g/day neomycin, 3-50 g/day β-sitosterol) to achieve up to 25% reductions in serum cholesterol levels. The advantages of PLA2 inhibitors over these agents is that the mechanism of cholesterol absorption inhibition is known and sufficiently potent PLA2 inhibitors could be administered in much smaller doses (potentially fewer side effects and better patient compliance) to achieve greater reductions in serum cholesterol levels. For example, in a cholesterol-fed hamster model, administration of 100 mg/kg of the phospholipase A2 inhibitor methyl-[2-(hexadecyloxy)phenyl]methyl ester phosphonic acid (Compound D in FIG. 13) produced reductions in plasma and liver cholesterol levels nearly equivalent to those obtained with a ten-fold higher dose (i.e., 1000 mg/kg) of β-sitosterol. Pancreatic PLA2 inhibitors represent a significant advancement over current agents, the use of which has already proven cholesterol absorption inhibitors to be a beneficial and effective therapy for hypercholesterolemia.

Caco-2 cells [2] = test: Caco-2 phospholipase A2-dependent cholesterol absorption, time course; assay type: cell-based, human; details: for suppression of cholesterol absorption by PC, effect of PLA2: porcine pancreatic PLA2, PC-containing micelles
Caco-2 cells [3] = test: Caco-2 lipase studies; assay type: cell-based, human
Description: (§1) Caco-2 cells were used as a tissue culture model of the human intestinal epithelium to compare the effects of phosphatidylcholine and lysophosphatidylcholine on lipid absorption and the subsequent re-esterification and secretion of micelle-derived lipids.
This was tested with the Caco-2 cells. Taurocholic acid micelles containing phosphatidylcholine, triolein, cholesteryl oleate and cholesterol were placed in the medium covering the apical surface of Caco-2 cell monolayers. Depending on the neutral lipid lipase being studied, either the triolein or cholesteryl oleate was tritium-labeled. The time course of radiolabeled lipid uptake and metabolism was studied in the absence or presence of the neutral lipid lipases, with or without PLA2. The results are in agreement with those presented by Borgstrom and coworkers. […] The results for micellar tri[^3 H]olein uptake indicated a similar but less severe dependence of triglyceride lipase activity on PLA2.

Caco-2 cells [4] = test: Caco-2 retinol absorption; assay type: cell-based, human; details: 10 μM retinol; FIG. 6
Description: as §1
The micelle preparations used in the experiments described for FIG. 4 also contained 10 μM retinol. Retinol was included to determine whether the influence of micellar phospholipid composition on cholesterol absorption extended to other fatty alcohols. Like cholesterol, retinol is a fatty alcohol that is absorbed from the diet by the intestinal epithelium and passed into the circulation by an analogous transport process involving fatty acylation and assembly of the resultant retinyl esters into chylomicrons (Blomhoff R., Green M. H., Berg T., Norum K. R., "Transport and storage of vitamin A." Science, 250:399-404 (1990)).

## CCCCCCCCCCCn1nnn(Cc2ccccc2)c1=N [Compound B, 1,4-dihydro-1-(phenylmethyl)-4-undecyl-5H-tetrazol-5-imine]
[1]
  lipid absorption in rats: reduced
Porcine pancreatic PLA2
  IC50: 4 µM
Plasma lipids
  % Change in plasma lipids vs. Control: HDL Chol.: 9%
  % Change in plasma lipids vs. Control: Total Chol.: -32%
  % Change in plasma lipids vs. Control: non-HDL Chol.: -44%

## CC[C@H](CC[C@@H](C)[C@H]1CC[C@H]2[C@@H]3CC=C4C[C@@H](O)CC[C@]4(C)[C@H]3CC[C@]12C)C(C)C [β-sitosterol]
Serum cholesterol
  reductions in serum cholesterol levels: up to 25%
Cholesterol absorption
  cholesterol absorption in hamsters: reduced

## PLA2: porcine pancreatic phospholipase A2
Caco-2 cells [2]; 6 hours, micelles with lyso-PC, or PC with PLA2
  [3H]oleate-labeled PC synthesis relative to phospholipid-free micelles: slight decrease
Caco-2 cells [2]; 12 hours, PC in the presence of PLA2
  cell [14C]cholesteryl ester relative to incubations without micellar phospholipid: 60%
Caco-2 cells [2]; PLA2 added to PC-containing micelles
  cell-associated free [14C]cholesterol relative to level in the absence of PC: 76%
Caco-2 cells [2]
  suppression of cholesterol absorption by PC, effect of PLA2: partially reversed the inhibitory effects of micellar PC
Caco-2 cells [2]; listed as pancreatic phospholipase A2
  suppression of cholesterol absorption by PC, effect of PLA2: reverses the suppression of cholesterol absorption and metabolism
Caco-2 cells [3]; FIGS. 7 and 8
  cellular absorption of fatty acids: dramatic increase
Caco-2 cells [3]; triglyceride lipase with or without PLA2, FIG. 8
  cellular accumulation of tritiated lipid from tri[3H]olein: the greatest cellular accumulation of tritiated lipid occurred in the incubation containing both lipases together
Caco-2 cells [3]; with or without carboxyl ester lipase and PLA2, FIG. 7
  entry of micellar [3H]cholesteryl oleate label into cells: did not enter the cells unless both carboxyl ester lipase and PLA2 were included in the incubation
Caco-2 cells [4]
  retinol uptake and esterification: not affected
